In brackets after ≈: the same amount, converted by molar mass.
Columns and labels:
[1] = system: S. aureus RpoB mutant D471G; assay: MIC, S. aureus RpoB D471G mutant; type: cell-based; conditions: Staphylococcus aureus; RpoB mutation D471G; strain backgrounds 1, 2
From the text: (§1) S. aureus is one of the most frequently encountered Gram-positive pathogens. Drug resistance-conferring mutations typically occur within the β subunit of RNA polymerase (RpoB mutations), in the rifampin-binding site. Mutants of S. aureus were isolated by inoculating a culture of S. aureus ATCC strain 29213 (standard susceptibility testing strain) into medium containing rifampin or rifalazil; by inoculating S. aureus ATCC strain 29213 into medium containing chemical derivatives of rifamycin (NCEs); by inoculating S. aureus Smith, a variant optimally adapted to colonizing and causing disease in the mouse septicemia model, into medium containing rifampin; and by using the Ian Chopra collection, the parent strain of which is S. aureus 8325-4 and described previously by Oliva et al. (Antimicrob. Agents Chemother. 45:532-9, 2001). […]
(§2) Having identified these mutants, the minimum inhibitory concentrations (MIC) of a number of rifamycin derivatives were determined in microtiter trays by inoculating 1-8×10^4 microorganisms in 100 μl of Mueller-Hinton Broth (cation adjusted) containing the indicated compound (Table 3) (National Committee for Clinical Laboratory Standards, Methods for Dilution Antimicrobial Susceptibility Tests for Bacteria That Grow Aerobically-Fourth Edition: Approved Standard M7-A4. NCCLS, Villanova, Pa., 1997). […]

[2] = system: S. aureus RpoB mutant L466S; assay: MIC, S. aureus RpoB L466S mutant; type: cell-based; conditions: Staphylococcus aureus; RpoB mutation L466S; strain backgrounds 1, 2, 4
From the text: as §1, §2

[3] = system: S. aureus RpoB mutant D471V; assay: MIC, S. aureus RpoB D471V mutant; type: cell-based; conditions: Staphylococcus aureus; RpoB mutation D471V; strain background 3
From the text: as §1, §2

[4] = system: S. aureus RpoB mutant S486L; assay: MIC, S. aureus RpoB S486L mutant; type: cell-based; conditions: Staphylococcus aureus; RpoB mutation S486L; strain backgrounds 1, 2, 4
From the text: as §1, §2

[5] = system: S. aureus RpoB mutant Q468K; assay: MIC, S. aureus RpoB Q468K mutant; type: cell-based; conditions: Staphylococcus aureus; RpoB mutation Q468K; strain background 1
From the text: as §1, §2

[6] = system: S. aureus RpoB mutant I527P; assay: MIC, S. aureus RpoB I527P mutant; type: cell-based; conditions: Staphylococcus aureus; RpoB mutation I527P; strain background 1
From the text: as §1, §2

[7] = system: S. aureus Smith mutant containing the S486L mutation in RpoB; assay: Mouse septicemia model, S. aureus Smith RpoB S486L; type: in vivo; conditions: 1.4 × 10^7 CFU/mouse, three days
Experimental: (§3) Antimicrobial compounds may also be screened in vivo using a mouse septicemia model. In one particular example, mice were inoculated with an S. aureus Smith strain (Weiss) encoding a mutated microbial polypeptide (e.g., a mutated RpoB). Compounds were administered either IV or orally 30 minutes following inoculation, and observations was continued for three days. Compounds that promoted the survival of inoculated mice were identified as being compounds that are effective against antibiotic-resistant forms of S. aureus.
(§4) This was accounted for by the increased MIC against these mutant strains compared with the wild-type strain (MICs of 2 μg/ml and 0.004-0.008 μg/ml, respectively).

[8] = system: S. aureus RpoB mutant D471Y; assay: MIC, S. aureus RpoB D471Y mutant; type: cell-based; conditions: Staphylococcus aureus; RpoB mutation D471Y; strain backgrounds 1, 2, 4
From the text: as §1, §2

S. aureus 29213 = assay: Mutant score test (resistance development on agar); type: cell-based; conditions: 10^9 cells of S. aureus 29213 on agar plate with 1 μg/ml compound
Experimental: A further confirmation of the validity of MIC testing of the mutant panel was provided by our mutant score test. Using this strategy, compounds were individually tested for resistance development by inoculating 10^9 cells of S. aureus 29213, a standard susceptibility strain, onto a large agar plate (150 mm) containing Mueller Hinton Agar as well as 1 μg/ml of the test compound. The presence of rifalazil or rifampin in these plates generally allowed for the growth of ˜50 colonies, all colonies representing a mutant sub-population or populations in the culture. […] The MICs of NCEs on agar plates were lower than MICs determined by growth in liquid broth. […] This correlation provided additional confidence in the value and ranking of compounds by MIC testing of the mutant panel, as compounds having a score of 2 have tracked with strong activity in MIC testing against resistant strains, as indicated in Table 3.

[9] = system: S. aureus RpoB mutant H481N; assay: MIC, S. aureus RpoB H481N mutant; type: cell-based; conditions: Staphylococcus aureus; RpoB mutation H481N; strain backgrounds 1, 4
From the text: as §1, §2

[10] = system: S. aureus Smith containing the RpoB H481Y alteration; assay: Mouse septicemia model, S. aureus Smith RpoB H481Y; type: in vivo; conditions: for Survival (n = 5): mouse, 1.1 × 10^7 CFU/mouse, three days
Experimental: as §3, §4

[11] = system: S. aureus RpoB mutant H481D; assay: MIC, S. aureus RpoB H481D mutant; type: cell-based; conditions: Staphylococcus aureus; RpoB mutation H481D; strain backgrounds 1, 4
From the text: as §1, §2

[12] = system: S. aureus RpoB mutant H481R; assay: MIC, S. aureus RpoB H481R mutant; type: cell-based; conditions: Staphylococcus aureus; RpoB mutation H481R; strain background 3
From the text: as §1, §2

[13] = system: S. aureus RpoB mutant S464P; assay: MIC, S. aureus RpoB S464P mutant; type: cell-based; conditions: Staphylococcus aureus; RpoB mutation S464P; strain backgrounds 1, 2, 4
From the text: as §1, §2

[14] = system: S. aureus RpoB mutant D471E; assay: MIC, S. aureus RpoB D471E mutant; type: cell-based; conditions: Staphylococcus aureus; RpoB mutation D471E; strain background 4
From the text: as §1, §2

[15] = system: Wild-type parent strains (S. aureus 29213, Smith, W59536, 8325-4); assay: MIC, wild-type parent S. aureus strains; type: cell-based; conditions: Staphylococcus aureus; Mutation None: wild-type parent strains; read-out: MIC
From the text: S. aureus is one of the most frequently encountered Gram-positive pathogens. Drug resistance-conferring mutations typically occur within the β subunit of RNA polymerase (RpoB mutations), in the rifampin-binding site. Mutants of S. aureus were isolated by inoculating a culture of S. aureus ATCC strain 29213 (standard susceptibility testing strain) into medium containing rifampin or rifalazil; by inoculating S. aureus ATCC strain 29213 into medium containing chemical derivatives of rifamycin (NCEs); by inoculating S. aureus Smith, a variant optimally adapted to colonizing and causing disease in the mouse septicemia model, into medium containing rifampin; and by using the Ian Chopra collection, the parent strain of which is S. aureus 8325-4 and described previously by Oliva et al. (Antimicrob. Agents Chemother. 45:532-9, 2001). Mutants resistant to rifampin, rifalazil, or NCEs were selected either on drug-containing plates or in liquid culture.
Having identified these mutants, the minimum inhibitory concentrations (MIC) of a number of rifamycin derivatives were determined in microtiter trays by inoculating 1-8×10^4 microorganisms in 100 μl of Mueller-Hinton Broth (cation adjusted) containing the indicated compound (Table 3) (National Committee for Clinical Laboratory Standards, Methods for Dilution Antimicrobial Susceptibility Tests for Bacteria That Grow Aerobically-Fourth Edition: Approved Standard M7-A4. NCCLS, Villanova, Pa., 1997). These cultures were incubated for 16-20 hours at 35° C. Based on our results, the most important mutants (conferring the strongest resistance) were identified for more extensive testing of NCEs. These mutants were H481Y, Q468K, S486L, D471Y, S464P, A477D, and H481D. […] An exception to the uniformity of the measure of resistance is provided by the mutants D471Y and S464P, which together have lower MICs for some of the compounds compared to the rest. […]

[16] = system: S. aureus RpoB mutant R484H; assay: MIC, S. aureus RpoB R484H mutant; type: cell-based; conditions: Staphylococcus aureus; RpoB mutation R484H; strain backgrounds 1, 3
From the text: as §1, §2

[17] = system: S. aureus RpoB mutant A477V; assay: MIC, S. aureus RpoB A477V mutant; type: cell-based; conditions: Staphylococcus aureus; RpoB mutation A477V; strain backgrounds 1, 2
From the text: as §1, §2

[18] = system: S. aureus RpoB mutant R484C; assay: MIC, S. aureus RpoB R484C mutant; type: cell-based; conditions: Staphylococcus aureus; RpoB mutation R484C; strain background 3
From the text: as §1, §2

[19] = system: S. aureus RpoB mutant Q137L; assay: MIC, S. aureus RpoB Q137L mutant; type: cell-based; conditions: Staphylococcus aureus; RpoB mutation Q137L; strain backgrounds 1, 4
From the text: as §1, §2

[20] = system: S. aureus RpoB mutant R484S; assay: MIC, S. aureus RpoB R484S mutant; type: cell-based; conditions: Staphylococcus aureus; RpoB mutation R484S; strain background 1
From the text: as §1, §2

[21] = system: S. aureus RpoB mutant A477D; assay: MIC, S. aureus RpoB A477D mutant; type: cell-based; conditions: Staphylococcus aureus; RpoB mutation A477D; strain backgrounds 1, 4
From the text: as §1, §2

[22] = system: S. aureus RpoB mutant H481Y; assay: MIC, S. aureus RpoB H481Y mutant; type: cell-based; conditions: Staphylococcus aureus; RpoB mutation H481Y; strain backgrounds 1, 2, 3
From the text: as §1, §2

[23] = system: S. aureus RpoB mutant Q468R; assay: MIC, S. aureus RpoB Q468R mutant; type: cell-based; conditions: Staphylococcus aureus; RpoB mutation Q468R; strain background 1
From the text: as §1, §2

[24] = system: S. aureus Smith mutant containing the L466S mutation in RpoB; assay: Mouse septicemia model, S. aureus Smith RpoB L466S; type: in vivo; conditions: 1.1 × 10^7 CFU/mouse, three days
Experimental: as §3, §4

[25] = system: S. aureus RpoB mutant I527M; assay: MIC, S. aureus RpoB I527M mutant; type: cell-based; conditions: Staphylococcus aureus; RpoB mutation I527M; strain background 1
From the text: as §1, §2

Structure (SMILES): CO[C@H]1/C=C/O[C@@]2(C)Oc3c(C)c(O)c4c(O)c(c(/C=N/N5CCN(C)CC5)c(O)c4c3C2=O)NC(=O)/C(C)=C\C=C\[C@H](C)[C@H](O)[C@@H](C)[C@@H](O)[C@@H](C)[C@H](OC(C)=O)[C@@H]1C [Rifampicin, rifampin]
- MIC [1]: > 8 µg/mL
- MIC [2]: 0.25 µg/mL (≈ 0.304 µM)
- MIC [3]: > 8 µg/mL
- MIC [4]: > 8 µg/mL
- MIC [5]: > 8 µg/mL
- MIC [6]: 4 µg/mL (≈ 4.86 µM)
- Survival (n = 5) ([7]; IV 6.0 mg/kg): 0
- Survival (n = 5) ([7]; IV 20.0 mg/kg): 1
- MIC [8]: 1 µg/mL (≈ 1.22 µM)
- growth of mutant colonies on plate (S. aureus 29213): ~50 colonies
- MIC [9]: 2 µg/mL (≈ 2.43 µM)
- efficacy against mutant strains in vivo ([10]; mouse septicemia model, mutant strains in general): failed to be effective
- Survival (n = 5) ([10]; IV 6.0 mg/kg): 0
- Survival (n = 5) ([10]; IV 20.0 mg/kg): 0
- Survival (n = 5) ([10]; oral 200.0 mg/kg): 0
- MIC [11]: > 8 µg/mL
- MIC [12]: > 8 µg/mL
- MIC [13]: > 8 µg/mL
- MIC [14]: 0.25 µg/mL (≈ 0.304 µM)
- MIC [15]: 0.015 µg/mL (≈ 0.0182 µM)
- MIC [16]: > 8 µg/mL
- MIC [17]: 1 µg/mL (≈ 1.22 µM)
- MIC [18]: 2 µg/mL (≈ 2.43 µM)
- MIC [19]: 0.25 µg/mL (≈ 0.304 µM)
- MIC [20]: 8 µg/mL (≈ 9.72 µM)
- MIC [21]: > 8 µg/mL
- MIC [22]: > 8 µg/mL
- MIC [23]: > 8 µg/mL
- Survival (n = 5) ([24]; IV 6.0 mg/kg): 0
- Survival (n = 5) ([24]; IV 20.0 mg/kg): 0
- MIC [25]: 0.25 µg/mL (≈ 0.304 µM)

Reference: US20050282242A1, “Screening assays for antimicrobial agents” (priority 2004, published 2005)
